Test results taken from US6706663B2, “Herbicidal 3-heterocyclic substituted benzisothiazole and benzisoxazole compounds” (Wyeth, priority 2000, dated 2004).

Legend:
ORYSAT (Rice, Tebonnet) [1] = test: Postemergence herbicidal evaluation; type: in vivo, Oryza sativa, (L.) Tebonnet; conditions: postemergence
Outline: (§1)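 Seedlings grown about two weeks in flats, sprayed, then kept under standard greenhouse care. Rated visually 4–5 weeks after treatment on a 0–9 scale (stand, vigour, malformation, size, chlorosis, overall appearance) relative to untreated control; repeat tests averaged.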

ZEAMX (Corn, Field) = test: Postemergence herbicidal evaluation; type: in vivo, Zea mays, L.; conditions: postemergence
Outline: as §1

[2] = test system: IPOHE (Ipomoea hederacea); test: Postemergence herbicidal evaluation; type: in vivo, (L.) Jacq.; conditions: postemergence
Outline: as §1

SETVI (Setaria viridis) [3] = test: Postemergence herbicidal evaluation; type: in vivo, (L.) Beau; conditions: postemergence
Outline: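 Visual injury score (0-9: stand, vigor, malformation, size, chlorosis, overall appearance vs untreated control) taken four to five weeks post-spray. Two-week-old seedlings received about 0.0040 to 1.000 kg/ha active compound in acetone/water with 0.5% TWEEN 20.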

[4] = test system: AMBEL (Ambrosia artemisifolia); test: Preemergence herbicidal evaluation; type: in vivo, L.; conditions: rated 4-5 weeks after treatment
Outline: (§2)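 Scores (0–9) reflect visual comparison with control plants for stand, vigor, malformation, size and chlorosis. Seeds in potting soil received a post-planting spray of compound in aqueous acetone and grew in a greenhouse until assessment 4–5 weeks later.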

[5] = test system: CHEAL (Chenopodium album); test: Preemergence herbicidal evaluation; type: in vivo, L.; conditions: rated 4-5 weeks after treatment
Outline: as §2

[6] = test system: CASOB (Cassia obtusifolia); test: Preemergence herbicidal evaluation; type: in vivo, L.; conditions: rated 4-5 weeks after treatment
Outline: as §2

[7] = test system: ABUTH (Abutilon theophrasti); test: Preemergence herbicidal evaluation; type: in vivo, Medic.; conditions: rated 4-5 weeks after treatment
SETVI (Setaria viridis) [8] = test: Preemergence herbicidal evaluation; type: in vivo, (L.) Beau; conditions: rated 4-5 weeks after treatment
Outline: as §2

[9] = test system: ECHCG (Echinochloa crus-galli); test: Preemergence herbicidal evaluation; type: in vivo, (L.) Beau; conditions: rated 4-5 weeks after treatment
Outline: as §2

[10] = test system: MOOVA (Monochoria vaginalis); test: Flooded paddy, preemergence weed control; type: in vivo, Presl.; conditions: rated 3-4 weeks after treatment, 0-9 rating scale
Outline: (§3)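 Plants were established from seed or propagating organs in flooded silt loam, with the water surface held 1.5 to 3 cm above the soil for the entire experiment. Injury was assessed visually against a control and given a 0-9 score.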

[11] = test system: TRZAWR (Wheat, Winter, cv Riband); test: Postemergence herbicidal evaluation; type: in vivo, Triticum aestivum; conditions: postemergence
Outline: as §1

[12] = test system: ECHCG (Echinochloa crus-galli); test: Postemergence herbicidal evaluation; type: in vivo, (L.) Beau; conditions: postemergence
Outline: as §1

[13] = test system: GLXMAW (Soybean, Williams); test: Postemergence herbicidal evaluation; type: in vivo, Glycine max, (L.) Merr. cv Williams; conditions: postemergence
Outline: as §1

GALAP (Galium aparine) = test: Preemergence herbicidal evaluation; type: in vivo; conditions: rated 4-5 weeks after treatment
Outline: as §2

[14] = test system: TRZAWR (Wheat, Winter, cv Riband); test: Preemergence herbicidal evaluation; type: in vivo, Triticum aestivum; conditions: rated 4-5 weeks after treatment
Outline: as §2

[15] = test system: ECHORC (Echinochloa oryzoides); test: Flooded paddy, preemergence weed control; type: in vivo, Echinochloa oryzoides (Ard.) Fritsch.; conditions: rated 3-4 weeks after treatment, 0-9 rating scale
Outline: as §3

ORYSAT (Rice, Tebonnet) [16] = test: Preemergence herbicidal evaluation; type: in vivo, Oryza sativa, (L.) Tebonnet; conditions: rated 4-5 weeks after treatment

Question: `Cn1c(C(F)(F)F)cc(=O)n(-c2ccc3snc(-c4sccc4CBr)c3c2)c1=O` [Compound 80, 3-[3-[3-(bromomethyl)-2-thienyl]-1,2-benzisothiazol-5-yl]-1-methyl-6-(trifluoromethyl)uracil] was tested. Which ORYSAT herbicidal rating (ORYSAT (Rice, Tebonnet) [1]; rate 0.0320 kg/ha) did it give?
Answer: Its ORYSAT herbicidal rating is 3.5.

Question: And the ORYSAT herbicidal rating (ORYSAT (Rice, Tebonnet) [1]; rate 0.0620 kg/ha)?
Answer: Its ORYSAT herbicidal rating is 3.5.

Question: What about the ZEAMX herbicidal rating (ZEAMX (Corn, Field); rate 0.0320 kg/ha) of the same molecule?
Answer: Its ZEAMX herbicidal rating is 3.5.

Question: And the ZEAMX herbicidal rating (ZEAMX (Corn, Field); rate 0.0620 kg/ha)?
Answer: Its ZEAMX herbicidal rating is 5.5.

Question: What about the IPOHE herbicidal rating ([2]; rate 0.0320 kg/ha) of the same molecule?
Answer: Its IPOHE herbicidal rating is 9.0.

Question: What about the IPOHE herbicidal rating ([2]; rate 0.0620 kg/ha) of the same molecule?
Answer: Its IPOHE herbicidal rating is 9.0.

Question: And the SETVI herbicidal rating (SETVI (Setaria viridis) [3]; rate 0.0320 kg/ha)?
Answer: Its SETVI herbicidal rating is 2.0.

Question: And the SETVI herbicidal rating (SETVI (Setaria viridis) [3]; rate 0.0620 kg/ha)?
Answer: The SETVI herbicidal rating was 3.0.

Question: And the “Preemergence herbicidal rating AMBEL” value ([4]; Rate 0.0620 kg/ha)?
Answer: The value was 5.0.

Question: And the “Preemergence herbicidal rating AMBEL” value ([4]; Rate 0.1250 kg/ha)?
Answer: Its value is 9.0.

Question: And the “Preemergence herbicidal rating AMBEL” value ([4]; Rate 0.2500 kg/ha)?
Answer: The value was 9.0.

Question: What about the “Preemergence herbicidal rating CHEAL” value ([5]; Rate 0.0620 kg/ha) of the same molecule?
Answer: The value was 5.5.

Question: And the “Preemergence herbicidal rating CHEAL” value ([5]; Rate 0.1250 kg/ha)?
Answer: Its value is 7.5.

Question: What about the “Preemergence herbicidal rating CHEAL” value ([5]; Rate 0.2500 kg/ha) of the same molecule?
Answer: Its value is 9.0.

Question: And the “Preemergence herbicidal rating CASOB” value ([6]; Rate 0.0620 kg/ha)?
Answer: Its value is 0.0.

Question: And the “Preemergence herbicidal rating CASOB” value ([6]; Rate 0.1250 kg/ha)?
Answer: Its value is 0.0.

Question: And the “Preemergence herbicidal rating CASOB” value ([6]; Rate 0.2500 kg/ha)?
Answer: The value was 1.5.

Question: What about the “Preemergence herbicidal rating ABUTH” value ([7]; Rate 0.0620 kg/ha) of the same molecule?
Answer: The value was 4.0.

Question: And the “Preemergence herbicidal rating ABUTH” value ([7]; Rate 0.1250 kg/ha)?
Answer: The value was 9.0.

Question: What about the “Preemergence herbicidal rating ABUTH” value ([7]; Rate 0.2500 kg/ha) of the same molecule?
Answer: Its value is 9.0.

Question: And the “Preemergence herbicidal rating SETVI” value (SETVI (Setaria viridis) [8]; Rate 0.0620 kg/ha)?
Answer: The value was 1.5.

Question: And the “Preemergence herbicidal rating SETVI” value (SETVI (Setaria viridis) [8]; Rate 0.1250 kg/ha)?
Answer: Its value is 4.5.

Question: What about the “Preemergence herbicidal rating SETVI” value (SETVI (Setaria viridis) [8]; Rate 0.2500 kg/ha) of the same molecule?
Answer: Its value is 7.5.

Question: What about the “Preemergence herbicidal rating ECHCG” value ([9]; Rate 0.0620 kg/ha) of the same molecule?
Answer: Its value is 0.5.

Question: What about the “Preemergence herbicidal rating ECHCG” value ([9]; Rate 0.1250 kg/ha) of the same molecule?
Answer: Its value is 2.0.

Question: And the “Preemergence herbicidal rating ECHCG” value ([9]; Rate 0.2500 kg/ha)?
Answer: The value was 6.5.

Question: What about the “herbicidal rating, MOOVA” value ([10]; rate 0.0080 kg/ha) of the same molecule?
Answer: The value was 0.0.

Question: What about the “herbicidal rating, MOOVA” value ([10]; rate 0.0320 kg/ha) of the same molecule?
Answer: Its value is 9.0.

Question: What about the “herbicidal rating, MOOVA” value ([10]; rate 0.1250 kg/ha) of the same molecule?
Answer: Its value is 9.0.

Question: What about the TRZAWR herbicidal rating ([11]; rate 0.0320 kg/ha) of the same molecule?
Answer: The TRZAWR herbicidal rating was 3.0.

Question: And the TRZAWR herbicidal rating ([11]; rate 0.0620 kg/ha)?
Answer: The TRZAWR herbicidal rating was 3.5.

Question: What about the ECHCG herbicidal rating ([12]; rate 0.0320 kg/ha) of the same molecule?
Answer: The ECHCG herbicidal rating was 0.0.

Question: And the ECHCG herbicidal rating ([12]; rate 0.0620 kg/ha)?
Answer: Its ECHCG herbicidal rating is 0.0.

Question: What about the GLXMAW herbicidal rating ([13]; rate 0.0320 kg/ha) of the same molecule?
Answer: The GLXMAW herbicidal rating was 5.0.

Question: What about the GLXMAW herbicidal rating ([13]; rate 0.0620 kg/ha) of the same molecule?
Answer: The GLXMAW herbicidal rating was 7.0.

Question: And the “Preemergence herbicidal rating GALAP” value (GALAP (Galium aparine); Rate 0.0620 kg/ha)?
Answer: The value was 4.0.

Question: What about the “Preemergence herbicidal rating GALAP” value (GALAP (Galium aparine); Rate 0.1250 kg/ha) of the same molecule?
Answer: The value was 5.0.

Question: And the “Preemergence herbicidal rating GALAP” value (GALAP (Galium aparine); Rate 0.2500 kg/ha)?
Answer: The value was 7.0.

Question: What about the “Preemergence herbicidal rating TRZAWR” value ([14]; Rate 0.0620 kg/ha) of the same molecule?
Answer: Its value is 0.0.

Question: And the “Preemergence herbicidal rating TRZAWR” value ([14]; Rate 0.1250 kg/ha)?
Answer: Its value is 0.0.

Question: And the “Preemergence herbicidal rating TRZAWR” value ([14]; Rate 0.2500 kg/ha)?
Answer: Its value is 2.0.

Question: And the “herbicidal rating, ECHORC” value ([15]; rate 0.0080 kg/ha)?
Answer: The value was 1.0.

Question: And the “herbicidal rating, ECHORC” value ([15]; rate 0.0320 kg/ha)?
Answer: Its value is 4.0.

Question: And the “herbicidal rating, ECHORC” value ([15]; rate 0.1250 kg/ha)?
Answer: The value was 8.0.

Question: And the “Preemergence herbicidal rating ORYSAT” value (ORYSAT (Rice, Tebonnet) [16]; Rate 0.0620 kg/ha)?
Answer: The value was 0.5.

Question: And the “Preemergence herbicidal rating ORYSAT” value (ORYSAT (Rice, Tebonnet) [16]; Rate 0.1250 kg/ha)?
Answer: The value was 2.5.

Question: And the “Preemergence herbicidal rating ORYSAT” value (ORYSAT (Rice, Tebonnet) [16]; Rate 0.2500 kg/ha)?
Answer: Its value is 6.0.
